Literature values, collected in US9907782B2, “Treatment or prevention of seborrheic keratosis using artemisinin and derivatives thereof” (EPIPHARM AG, priority 2014, dated 2018).
Each block holds one compound with its values, some of them ahead of it.

How the values were obtained:
[1] = system: seborrheic keratosis lesions; details: for clinical improvement: once daily application, calcipotriene 0.005% ointment, imiquimod 5% cream
[2] = molecular target: T1, tyrosinase (Homo sapiens, UniProt P14679); details: according to US 2010/0061948 A1, allegedly
T1 sequence (P14679 19-529): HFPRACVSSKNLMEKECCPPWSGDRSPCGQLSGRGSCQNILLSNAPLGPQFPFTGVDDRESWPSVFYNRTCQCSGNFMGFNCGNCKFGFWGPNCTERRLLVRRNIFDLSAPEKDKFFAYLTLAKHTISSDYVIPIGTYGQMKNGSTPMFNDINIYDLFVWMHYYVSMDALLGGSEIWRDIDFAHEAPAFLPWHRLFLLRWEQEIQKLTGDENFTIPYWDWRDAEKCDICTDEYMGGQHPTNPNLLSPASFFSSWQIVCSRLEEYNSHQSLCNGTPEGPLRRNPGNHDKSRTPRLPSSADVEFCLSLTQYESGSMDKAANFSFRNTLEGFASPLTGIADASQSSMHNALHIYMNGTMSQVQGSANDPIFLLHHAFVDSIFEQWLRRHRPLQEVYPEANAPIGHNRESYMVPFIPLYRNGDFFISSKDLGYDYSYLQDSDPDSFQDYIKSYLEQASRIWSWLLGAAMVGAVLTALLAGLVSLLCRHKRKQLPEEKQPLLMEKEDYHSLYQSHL

[3] = system: melanin synthesis; details: according to US 2010/0061948 A1, allegedly
[4] = system: psoriasis; details: topical; three psoriasis patients
[5] = system: seborrheic keratosis lesions

SMILES: CC(C)Cn1cnc2c(N)nc3ccccc3c21 [imiquimod]
clinical improvement ([1]; tazarotene 0.1% cream): did not result in any clinical improvement

tyrosinase activity [2]: suppressed
solubility in water: very hard to dissolve in water
SMILES: C[C@@H]1CC[C@H]2[C@@H](C)C(=O)O[C@@H]3O[C@@]4(C)CC[C@@H]1[C@]32OO4 [artemisinin]
melanin synthesis [3]: suppressed
treatment of psoriasis [4]: successfully

SMILES: CCOC(=O)c1ccc(C#Cc2ccc3c(c2)C(C)(C)CCS3)nc1 [tazarotene]
clinical and histological improvement ([1]; bi-daily application, tazarotene 0.1% cream): less than half the patients
clinical improvement ([1]; tazarotene 0.1% cream): did not result in any clinical improvement
patients reporting burning, pruritus and redness (irritation) ([1]; topical tazarotene): ⅔

SMILES: NC(N)=O [urea]
side effects ([5]; 50% urea under occlusion): no side effects were reported
thickness of seborrheic keratosis lesions ([5]; 50% urea under occlusion and digitally scraping the lesions, lesions did persist albeit with reduced size): some reduction of the thickness

solubility in water: more water-soluble
SMILES: C[C@H]1[C@@H](O)O[C@@H]2O[C@@]3(C)CC[C@H]4[C@H](C)CC[C@@H]1[C@@]24OO3 [dihydroartemisinin]

SMILES: C=C1/C(=C\C=C2/CCC[C@]3(C)[C@@H]([C@H](C)/C=C/[C@@H](O)C4CC4)CC[C@@H]23)C[C@@H](O)C[C@@H]1O [calcipotriene]
clinical improvement ([1]; tazarotene 0.1% cream): did not result in any clinical improvement

solubility in water: more water-soluble
SMILES: C[C@H]1[C@H](OC(=O)CCC(=O)O)O[C@@H]2O[C@@]3(C)CC[C@H]4[C@H](C)CC[C@@H]1[C@@]24OO3 [artesunate]
